This passage reports IC50 results from patent publication US10544143B2, “4-azaindole compounds” (BRISTOL-MYERS SQUIBB COMPANY, priority 2017, dated 2020).

What is called IC50 is the concentration that gives 50% inhibition.

SMILES strings stand for the structures.

The target of one test is human TLR9 (Homo sapiens (Human), UniProt Q9NR96). The test is described as follows: TLR9 inhibition reporter assay (HEK-Blue SEAP).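 Also: SEAP driven by an IFN-β minimal promoter with NF-κB and AP-1 sites, read after 22 h, compounds dosed 0.05 nM–50 µM, inhibition scaled between agonist plus DMSO and reference-inhibitor wells.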 The following applies: read-out: TLR9 IC50; HEK-Blue cells overexpressing human TLR9, ODN2006 5 nM stimulation, SEAP reporter. Background: A reporter such as luciferase makes a cellular process visible.
Sequence of human TLR9 (Q9NR96 26-1032): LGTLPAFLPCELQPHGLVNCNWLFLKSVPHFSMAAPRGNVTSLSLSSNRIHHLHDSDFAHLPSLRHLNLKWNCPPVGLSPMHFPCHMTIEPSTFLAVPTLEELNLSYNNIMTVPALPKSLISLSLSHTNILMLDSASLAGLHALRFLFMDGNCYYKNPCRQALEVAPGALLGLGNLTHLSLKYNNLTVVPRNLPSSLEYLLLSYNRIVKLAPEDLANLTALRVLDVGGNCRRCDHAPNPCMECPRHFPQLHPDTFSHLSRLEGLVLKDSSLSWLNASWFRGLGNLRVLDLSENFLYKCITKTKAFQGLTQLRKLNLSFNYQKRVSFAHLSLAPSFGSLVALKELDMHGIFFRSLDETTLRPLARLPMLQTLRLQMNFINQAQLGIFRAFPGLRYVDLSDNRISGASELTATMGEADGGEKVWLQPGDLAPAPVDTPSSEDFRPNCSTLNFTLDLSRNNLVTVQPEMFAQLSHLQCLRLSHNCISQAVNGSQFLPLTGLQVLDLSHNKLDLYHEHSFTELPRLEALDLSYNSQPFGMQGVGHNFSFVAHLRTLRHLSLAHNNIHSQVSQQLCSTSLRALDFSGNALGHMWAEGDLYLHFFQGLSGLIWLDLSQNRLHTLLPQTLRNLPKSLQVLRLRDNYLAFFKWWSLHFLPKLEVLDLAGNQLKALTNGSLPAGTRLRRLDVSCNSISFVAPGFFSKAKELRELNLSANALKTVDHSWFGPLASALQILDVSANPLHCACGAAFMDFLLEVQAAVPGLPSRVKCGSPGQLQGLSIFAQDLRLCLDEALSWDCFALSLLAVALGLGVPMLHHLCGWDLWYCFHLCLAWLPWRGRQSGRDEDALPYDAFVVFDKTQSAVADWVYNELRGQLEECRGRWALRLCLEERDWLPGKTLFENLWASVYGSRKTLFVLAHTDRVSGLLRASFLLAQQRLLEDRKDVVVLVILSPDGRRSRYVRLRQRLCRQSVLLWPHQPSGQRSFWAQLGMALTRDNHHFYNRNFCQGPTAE
In another test the target is human TLR7 (Homo sapiens (Human), UniProt Q9NYK1). The test is described as follows: TLR7 inhibition reporter assay (HEK-Blue SEAP). In kind it is cell-based. Particulars: HEK-Blue cells overexpressing human TLR7, gardiquimod 7.5 μM stimulation, SEAP reporter.
Sequence of human TLR7 (Q9NYK1 27-1049): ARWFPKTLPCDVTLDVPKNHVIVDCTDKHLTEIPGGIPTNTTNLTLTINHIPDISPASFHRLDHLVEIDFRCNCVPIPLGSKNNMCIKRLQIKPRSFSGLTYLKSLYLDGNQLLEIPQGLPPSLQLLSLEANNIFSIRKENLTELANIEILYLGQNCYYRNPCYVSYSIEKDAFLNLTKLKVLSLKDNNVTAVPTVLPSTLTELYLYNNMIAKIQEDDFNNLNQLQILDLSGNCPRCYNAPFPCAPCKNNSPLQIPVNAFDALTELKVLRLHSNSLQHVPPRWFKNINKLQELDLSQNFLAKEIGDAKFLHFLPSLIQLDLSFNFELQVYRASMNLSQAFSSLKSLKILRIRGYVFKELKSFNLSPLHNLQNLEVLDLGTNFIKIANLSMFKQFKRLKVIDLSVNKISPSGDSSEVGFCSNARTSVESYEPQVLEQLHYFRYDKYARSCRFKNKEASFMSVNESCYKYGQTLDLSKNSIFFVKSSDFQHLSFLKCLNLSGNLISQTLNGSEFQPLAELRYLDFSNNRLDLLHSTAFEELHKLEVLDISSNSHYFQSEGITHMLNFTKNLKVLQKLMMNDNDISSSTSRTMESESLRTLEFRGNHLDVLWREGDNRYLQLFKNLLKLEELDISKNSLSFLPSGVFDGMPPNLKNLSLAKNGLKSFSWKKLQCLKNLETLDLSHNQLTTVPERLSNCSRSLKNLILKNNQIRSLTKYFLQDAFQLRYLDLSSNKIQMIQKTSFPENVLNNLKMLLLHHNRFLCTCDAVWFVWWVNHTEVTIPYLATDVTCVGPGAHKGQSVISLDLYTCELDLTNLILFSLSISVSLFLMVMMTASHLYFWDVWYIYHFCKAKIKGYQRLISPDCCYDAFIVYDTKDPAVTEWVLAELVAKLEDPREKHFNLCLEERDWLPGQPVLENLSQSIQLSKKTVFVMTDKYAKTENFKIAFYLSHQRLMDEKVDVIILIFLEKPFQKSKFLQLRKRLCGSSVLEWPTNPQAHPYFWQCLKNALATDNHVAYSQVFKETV
The next test concerns the target human TLR8 (Homo sapiens (Human), UniProt Q9NR97). The test is described as follows: TLR8 inhibition reporter assay (HEK-Blue SEAP).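 Also: SEAP driven by IFN-β minimal promoter carrying NF-κB and AP-1 sites, compounds dosed 0.05 nM to 50 µM for 22 h, inhibition scaled between agonist-plus-DMSO and reference-inhibitor wells.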 Particulars: read-out: TLR8 IC50; HEK-Blue cells overexpressing human TLR8, R848 15.9 μM stimulation, SEAP reporter.

Sequence of human TLR8 (Q9NR97 27-1041): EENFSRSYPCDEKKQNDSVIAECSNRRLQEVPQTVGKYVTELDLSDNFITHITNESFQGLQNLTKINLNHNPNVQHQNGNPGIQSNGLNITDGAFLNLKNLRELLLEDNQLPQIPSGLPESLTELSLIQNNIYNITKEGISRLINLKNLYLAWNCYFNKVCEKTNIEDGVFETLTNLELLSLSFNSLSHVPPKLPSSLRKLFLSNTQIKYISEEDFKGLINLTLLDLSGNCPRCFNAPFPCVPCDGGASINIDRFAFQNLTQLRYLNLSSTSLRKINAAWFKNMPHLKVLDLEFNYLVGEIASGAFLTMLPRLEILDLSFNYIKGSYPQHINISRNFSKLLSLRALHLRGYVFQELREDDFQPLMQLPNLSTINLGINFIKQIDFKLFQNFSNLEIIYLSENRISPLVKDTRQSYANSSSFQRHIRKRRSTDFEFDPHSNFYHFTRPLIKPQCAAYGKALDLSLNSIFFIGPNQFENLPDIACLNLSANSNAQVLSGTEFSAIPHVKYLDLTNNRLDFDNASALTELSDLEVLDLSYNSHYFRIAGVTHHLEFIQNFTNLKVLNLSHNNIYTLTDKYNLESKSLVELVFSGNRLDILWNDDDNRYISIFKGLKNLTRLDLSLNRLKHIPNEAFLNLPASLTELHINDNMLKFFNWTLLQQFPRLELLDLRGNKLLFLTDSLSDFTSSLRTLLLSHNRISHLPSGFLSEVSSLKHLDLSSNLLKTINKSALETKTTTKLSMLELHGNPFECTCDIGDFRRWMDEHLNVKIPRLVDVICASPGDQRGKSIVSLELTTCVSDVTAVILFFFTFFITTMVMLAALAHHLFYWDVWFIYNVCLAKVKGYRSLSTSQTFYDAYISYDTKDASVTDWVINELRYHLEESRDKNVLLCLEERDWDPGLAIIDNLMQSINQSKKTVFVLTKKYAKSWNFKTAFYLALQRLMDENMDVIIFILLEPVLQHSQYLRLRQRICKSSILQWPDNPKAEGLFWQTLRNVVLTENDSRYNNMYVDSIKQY

On to `CC(C)c1c(-c2cc(CO)c3ncnn3c2)[nH]c2ccc(N3CCC(NCC#N)CC3)nc12` [Example 83], for which the IC50 came out at 5440 nM at human TLR9, 3.6 nM against human TLR7 and 6.9 nM at human TLR8.
As for `CC(C)c1c(-c2cc(CO)c3ncnn3c2)[nH]c2ccc(N3CCC(NCC(=O)N(C)C)CC3)nc12` [Example 84], the IC50 is above 50000 nM at human TLR9, 2200 nM at human TLR7 and above 3120 nM at human TLR8.
Turning to `CC(C)c1c(-c2cc(CO)c3ncnn3c2)[nH]c2ccc(N3CCC(NCC(=O)N(C)C)CC3)nc12` [Example 85], the values for the IC50 at human TLR9, against human TLR7 and at human TLR8 were 5180 nM, 1.8 nM and 5.8 nM, respectively.
Taken in the same sequence, the figures for `Cc1c(-c2[nH]c3ccc(N4CCCC(NC5COC5)C4)nc3c2C(C)C)cn2ncnc2c1C` (stereo not drawn) [Example 86] were above 50000 nM, 7.5 nM and 2.9 nM.
For the molecule `Cc1c(-c2[nH]c3ccc(N4CCCC(NCC5(S(C)(=O)=O)CC5)C4)nc3c2C(C)C)cn2ncnc2c1C` (stereo not drawn) [Example 87], the IC50 is above 50000 nM at human TLR9, 3.5 nM on human TLR7 and 0.58 nM at human TLR8.
Taken in the same sequence, the figures for `Cc1cc(-c2[nH]c3ccc(N4CCNCC4)nc3c2C(C)C)cn2ncnc12` [Example 88] were 3600 nM, 68 nM and 91 nM.
For `COc1cc(-c2[nH]c3ccc(N4CCNCC4)nc3c2C(C)C)cn2ncnc12` [Example 89] the same measures were 3260 nM, 0.51 nM and 0.59 nM.
Taken in the same sequence, the figures for `COc1cc(-c2[nH]c3ccc(N4CCN(C(=O)CN(C)C)CC4)nc3c2C(C)C)cn2ncnc12` [Example 90] were 5000 nM, 0.57 nM and 4.2 nM.
As for `COc1cc(-c2[nH]c3ccc(N4CCN(C)CC4)nc3c2C(C)C)cn2ncnc12` [Example 91], the values for the IC50 at human TLR9, on human TLR7 and at human TLR8 were 6310 nM, 0.68 nM and 0.53 nM, respectively.
On to `COc1cc(-c2[nH]c3ccc(N4CCN(C(C)C)CC4)nc3c2C(C)C)cn2ncnc12` [Example 92], for which the IC50 is 3990 nM at human TLR9, 0.87 nM at human TLR7 and 0.78 nM at human TLR8.
As to `COc1cc(-c2[nH]c3ccc(N4CCN(C5COC5)CC4)nc3c2C(C)C)cn2ncnc12` [Example 93], the IC50 on human TLR9 is 35000 nM; against human TLR7, 5.3 nM; at human TLR8, 7.2 nM.
For `COc1cc(-c2[nH]c3ccc(N4CCN(CC#N)CC4)nc3c2C(C)C)cn2ncnc12` [Example 94], the IC50 at human TLR9 turned out to be 9350 nM; on human TLR7, 1 nM; on human TLR8 it was 1.4 nM.
As for `COc1cc(-c2[nH]c3ccc(N4CCN(CCS(C)(=O)=O)CC4)nc3c2C(C)C)cn2ncnc12` [Example 95], the IC50 on human TLR9 is above 50000 nM; against human TLR7 it was 4.9 nM; at human TLR8, 3.6 nM.
For `Cc1c(-c2[nH]c3ccc(N4CCN(C)CC4)nc3c2C(C)C)cn2ncnc2c1C` [Example 96, 6-(3-isopropyl-5-(4-methylpiperazin-1-yl)-1H-pyrrolo[3,2-b]pyridin-2-yl)-7,8-dimethyl-[1,2,4]triazolo[1,5-a]pyridine] the same measures were 9430 nM, 1.5 nM and 0.28 nM.
On to `Cc1c(-c2[nH]c3ccc(N4CCN(CC5(C)COC5)CC4)nc3c2C(C)C)cn2ncnc2c1C` [Example 97], for which the IC50 is above 50000 nM at human TLR9, 28 nM against human TLR7 and 4.1 nM at human TLR8.
As to `Cc1c(-c2[nH]c3ccc(N4CCN(C(=O)CCN(C)C)CC4)nc3c2C(C)C)cn2ncnc2c1C` [Example 98], the values for the IC50 on human TLR9, against human TLR7 and on human TLR8 were 5230 nM, 0.74 nM and 0.72 nM, respectively.
As for `COc1cc(-c2[nH]c3ccc(N4CCN(C(=O)CCN(C)C)CC4)nc3c2C(C)C)cn2ncnc12` [Example 99], the IC50 stood at 4300 nM on human TLR9, 0.51 nM against human TLR7 and 2.9 nM at human TLR8.
For the molecule `Cc1c(-c2[nH]c3ccc(N4CCN(C(C)C)CC4)nc3c2C(C)C)cn2ncnc2c1C` [Example 100], the IC50 on human TLR9 turned out to be 6150 nM; against human TLR7, 3.2 nM; at human TLR8, 0.55 nM.
Consider `Cc1c(-c2[nH]c3ccc(N4CCN(C5CCOCC5)CC4)nc3c2C(C)C)cn2ncnc2c1C` [Example 101], for which the IC50 on human TLR9 was 6400 nM; on human TLR7 it was 3.7 nM; at human TLR8, 0.25 nM.
Take `COc1cc(-c2[nH]c3ccc(N4CCN(CC5(C)COC5)CC4)nc3c2C(C)C)cn2ncnc12` [Example 102]: the IC50 was above 50000 nM at human TLR9, 12 nM on human TLR7 and 5.1 nM on human TLR8.
Taken in the same sequence, the figures for `COc1cc(-c2[nH]c3ccc(N4CCN(C5CCOCC5)CC4)nc3c2C(C)C)cn2ncnc12` [Example 104] were 4160 nM, 2.3 nM and 0.75 nM.
For `Cc1c(-c2[nH]c3ccc(N4CCN(CC(C)(C)O)CC4)nc3c2C(C)C)cn2ncnc2c1C` [Example 105, 1-(4-(2-(7,8-dimethyl-[1,2,4]triazolo[1,5-a]pyridin-6-yl)-3-isopropyl-1H-pyrrolo[3,2-b]pyridin-5-yl)piperazin-1-yl)-2-methylpropan-2-ol] the same measures were 9240 nM, 3.9 nM and 0.15 nM.
As to `COc1cc(-c2[nH]c3ccc(N4CCN(CC(C)(C)O)CC4)nc3c2C(C)C)cn2ncnc12` [Example 106], the IC50 at human TLR9 amounted to 7780 nM; against human TLR7 it was 2.2 nM; at human TLR8, 0.28 nM.
Regarding `COc1cc(-c2[nH]c3ccc(N4CCN(CC5CCOC5)CC4)nc3c2C(C)C)cn2ncnc12` (stereo not drawn) [Example 107], the IC50 came to 5630 nM at human TLR9, 2.2 nM at human TLR7 and 0.37 nM at human TLR8.
For the molecule `COc1cc(-c2[nH]c3ccc(N4CCN(C5CCC5)CC4)nc3c2C(C)C)cn2ncnc12` [Example 108], the IC50 on human TLR9 is 3510 nM; against human TLR7 it was 2.5 nM; on human TLR8, 0.99 nM.
Turning to `COc1cc(-c2[nH]c3ccc(N4CCN(CC(C)C)CC4)nc3c2C(C)C)cn2ncnc12` [Example 109], the IC50 was 8010 nM on human TLR9, 3.6 nM on human TLR7 and 1.3 nM at human TLR8.
`COc1cc(-c2[nH]c3ccc(N4CCN(CCC(C)C)CC4)nc3c2C(C)C)cn2ncnc12` [Example 110]: the IC50 is 4540 nM at human TLR9, 1.9 nM at human TLR7 and 0.76 nM at human TLR8.
Taken in the same sequence, the figures for `COCC(C)N1CCN(c2ccc3[nH]c(-c4cc(OC)c5ncnn5c4)c(C(C)C)c3n2)CC1` (stereo not drawn) [Example 112] were 6010 nM, 2.2 nM and 1.2 nM.
Turning to `COc1cc(-c2[nH]c3ccc(N4CCN(C5CCC(O)CC5)CC4)nc3c2C(C)C)cn2ncnc12` (stereo not drawn) [Example 113], the IC50 at human TLR9 worked out at 3360 nM; on human TLR7 it was 1.4 nM; on human TLR8, 0.95 nM.
Taken in the same sequence, the figures for `COc1cc(-c2[nH]c3ccc(N4CCN(CCC(C)(C)C)CC4)nc3c2C(C)C)cn2ncnc12` [Example 114] were 7590 nM, 4.7 nM and 1.8 nM.
For the molecule `CCCCN1CCN(c2ccc3[nH]c(-c4cc(OC)c5ncnn5c4)c(C(C)C)c3n2)CC1` [Example 115], the IC50 at human TLR9 came to 3480 nM; at human TLR7 it was 1.2 nM; on human TLR8, 0.49 nM.
For `COc1cc(-c2[nH]c3ccc(N4CCN(CCC(F)(F)F)CC4)nc3c2C(C)C)cn2ncnc12` [Example 116] the same measures were 35600 nM, 9.7 nM and 5 nM.
For `COc1cc(-c2[nH]c3ccc(N4CCN(C(C)CO)CC4)nc3c2C(C)C)cn2ncnc12` (stereo not drawn) [Example 117] the same measures were 5640 nM, 1.4 nM and 0.81 nM.
Turning to `COc1cc(-c2[nH]c3ccc(N4CCN(C(C)CCO)CC4)nc3c2C(C)C)cn2ncnc12` (stereo not drawn) [Example 118], the IC50 was found to be 5580 nM at human TLR9, 1.8 nM against human TLR7 and 0.86 nM at human TLR8.
For `CCN1CCN(c2ccc3[nH]c(-c4cc(OC)c5ncnn5c4)c(C(C)C)c3n2)CC1` [Example 119] the same measures were 14100 nM, 1.8 nM and 0.96 nM.
For `COc1cc(-c2[nH]c3ccc(N4CCN(CC5CC5)CC4)nc3c2C(C)C)cn2ncnc12` [Example 120] the same measures were 5490 nM, 2.3 nM and 0.6 nM.
As to `COc1cc(-c2[nH]c3ccc(N4CCN(C5CCN(C(C)=O)CC5)CC4)nc3c2C(C)C)cn2ncnc12` [Example 121], the results for the IC50 on human TLR9, at human TLR7 and at human TLR8 were 6350 nM, 3.4 nM and 0.8 nM, respectively.
Take `CC(C)c1c(-c2cn(C)c3ncncc23)[nH]c2ccc(N3CCNCC3)nc12` [Example 122]: the IC50 at human TLR9 was 7250 nM; on human TLR7 it was 1.7 nM; at human TLR8, 1.1 nM.
With `CC(C)c1c(-c2cn(C)c3ncncc23)[nH]c2ccc(N3CCN(C(=O)CN(C)C)CC3)nc12` [Example 123], the figures for the IC50 on human TLR9, on human TLR7 and at human TLR8 were 8650 nM, 1.9 nM and 6.3 nM, respectively.
For `CC(C)c1c(-c2cn(C)c3ncncc23)[nH]c2ccc(N3CCN(C(=O)CCN(C)C)CC3)nc12` [Example 124] the same measures were 5790 nM, 1.2 nM and 4.7 nM.
`CC(C)c1c(-c2cn(C)c3ncncc23)[nH]c2ccc(N3CCN(C)CC3)nc12` [Example 125]: the IC50 on human TLR9 worked out at 6540 nM; on human TLR7, 2.6 nM; at human TLR8 it was 0.66 nM.
For the molecule `CC(C)c1c(-c2cn(C)c3ncncc23)[nH]c2ccc(N3CCN(C(C)C)CC3)nc12` [Example 126], the IC50 at human TLR9 was found to be 6120 nM; at human TLR7, 5.9 nM; on human TLR8, 1.5 nM.
